Test [1] addresses T1, human NMUR2 receptor (Homo sapiens, UniProt Q9GZQ4). The test can be described thus: IP1 Gq HTRF assay, activation of human NMUR2 in buffer. Conditions: CHO-K1 cells expressing human NMUR2, stimulation buffer with 0.1% BSA; read-out: EC50 (hNMUR2) buffer. The test is classed as cell-based. Also noted: expressed in transfected cells; host or cells: CHO-K1. The text has this: Example 3: IP1 Gq HTRF Assay Activation of Human NMUR2 or Human NMUR1 in Buffer Application of the Homogenous Time Resolved Fluorescence (HTRF) technology optimized for Gq coupled receptors has been described in detail in the Cisbio IP-One Gq kit manual. In brief, a FRET signal (FRET: fluorescence resonance energy transfer) is generated between the donor label of an IP-One antibody (anti-IP1-Tb) and the acceptor label of a tagged IP-One (IP1-d2). Agonism of a Gq coupled receptor increases intracellular IP-One, which competes with labeled IP-One and leads to a reduction of the FRET signal. Frozen stocks of CHO-K1 cells stably expressing the human NMUR1 or NMUR2 receptor were thawed and 5000 cells were seeded in culture medium (HAM'S F12, 10% FCS) into each well of a 384-well assay plate. After seeding, cells were incubated for 24 h in a humidified incubator at 37° C. and 5% CO2. Next, cells were washed once with 50 μL of wash buffer (20 mM Hepes, 1×HBSS, pH 7.4), followed by addition of either 10 μL of stimulation buffer (20 mM Hepes, 1×HBSS, 50 mM LiCl, 0.1% BSA, pH 7.4). Peptide agonists to be tested were dissolved in 100% DMSO and pre-diluted in stimulation buffer at a suitable concentration range for an 8 pt dose-response curve. 5 μL of peptide pre-dilution were then added to each well, followed by another 5 μL of stimulation buffer to give a final concentration of 1% DMSO. Samples were subsequently incubated for 1 hour in a humidified incubator at 37° C. After addition of 5 μL each of IP1-d2 and anti-IP1-Tb, samples were incubated for another 1 hour at room temperature and FRET signals (ratio 665 nm/620 nm) were measured. EC50 values were calculated by nonlinear regression using a 4-parameter sigmoidal curve fit.

Test [2] addresses T1, human NMUR2 receptor. The test can be described thus: IP1 Gq HTRF assay, activation of human NMUR2 in human plasma. The test is classed as cell-based. Also noted: expressed in transfected cells; host or cells: CHO-K1. Conditions: CHO-K1 cells expressing human NMUR2, 100% human plasma; read-out: EC50 (hNMUR2) human plasma. The text has this: Example 4: IP1 Gq HTRF Assay Activation of Human NMUR2 in Human Plasma Application of the Homogenous Time Resolved Fluorescence (HTRF) technology optimized for Gq coupled receptors has been described in detail in the Cisbio IP-One Gq kit manual. In brief, a FRET signal is generated between the donor label of an IP-One antibody (anti-IP1-Tb) and the acceptor label of a tagged IP-One (IP1-d2). Agonism of a Gq coupled receptor increases intracellular IP-One, which competes with labeled IP-One and leads to a reduction of the FRET signal. Frozen stocks of CHO-K1 cells stably expressing the human NMUR1 receptor or human NMUR2 receptor were thawed and 5000 cells were seeded in culture medium (HAM'S F12, 10% FCS) into each well of a 384-well assay plate. After seeding, cells were incubated for 24 h in a humidified incubator at 37° C. and 5% CO2. Next, cells were washed once with […] of wash buffer (20 mM Hepes, 1×HBSS, pH 7.4), followed by addition of […] (100% human plasma, 50 mM LiCl). Peptide agonists to be tested were dissolved in 100% DMSO and pre-diluted in plasma at a suitable concentration range for an 8 pt dose-response curve. 5 μL of peptide pre-dilution were then added to each well, followed by another 5 μL of plasma to give a final concentration of 1% DMSO. Samples were subsequently incubated for 1 hour in a humidified incubator at 37° C. The plasma solution was replaced by 20 μL of stimulation buffer. After addition of 5 μL each of IP1-d2 and anti-IP1-Tb, samples were incubated for another 1 hour at room temperature and FRET signals (ratio 665 nm/620 nm) were measured. EC50 values were calculated by nonlinear regression using a 4-parameter sigmoidal curve fit.

Residues, ends and D or L forms follow the SMILES beside them.

T1 sequence (Q9GZQ4 whole entry): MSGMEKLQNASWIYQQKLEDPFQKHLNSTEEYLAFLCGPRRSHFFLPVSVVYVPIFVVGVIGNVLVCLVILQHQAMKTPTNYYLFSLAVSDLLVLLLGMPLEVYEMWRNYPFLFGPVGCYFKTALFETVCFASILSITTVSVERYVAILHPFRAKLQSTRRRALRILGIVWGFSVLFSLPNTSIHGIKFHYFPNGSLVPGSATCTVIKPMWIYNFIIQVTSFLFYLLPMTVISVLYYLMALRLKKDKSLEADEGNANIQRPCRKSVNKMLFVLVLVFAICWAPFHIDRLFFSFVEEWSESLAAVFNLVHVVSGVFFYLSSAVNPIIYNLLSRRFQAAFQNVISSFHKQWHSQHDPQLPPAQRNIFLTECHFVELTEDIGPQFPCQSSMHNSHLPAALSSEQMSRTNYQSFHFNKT

Take `CCCC[C@H](NC(=O)[C@H](CC(C)C)N(C)C(=O)[C@H](Cc1ccccc1)NC(=O)[C@H](Cc1ccc(O)cc1)NC(=O)CN1CCN(C(=O)CN(C)C(=O)CN(C)C(=O)CN(C)C(=O)CN(C)C(=O)CN(C)C(=O)CN(C)C(=O)CN(C)C(=O)CN(C)C(=O)CN(C)C(=O)CN(C)C(=O)CN(C)C(=O)CN(C)C(=O)CC[C@H](NC(=O)CC[C@H](NC(=O)CC[C@H](NC(=O)CCCCCCCCCCCCCCCCCCC(=O)O)C(=O)O)C(=O)O)C(=O)O)CC1)C(=O)N[C@@H](CCCNC(=N)N)C(=O)N1CCC[C@H]1C(=O)N[C@@H](CCCNC(=N)N)C(=O)NCC(N)=O` [Compound 78, C20DA-gGlu3-Sar12-PipAc-Tyr-Phe-NMeLeu-Nle-Arg-Pro-Arg-Gly-NH2]: the 50% effective concentration (EC50) came out at 1.2 nM in test [1] and 5.3 nM in test [2].
The corresponding values for `CCCC[C@H](NC(=O)[C@H](CC(C)C)N(C)C(=O)[C@H](Cc1ccccc1)NC(=O)[C@H](Cc1ccc(O)cc1)NC(=O)CN1CCN(CCNC(=O)CN(C)C(=O)CN(C)C(=O)CN(C)C(=O)CN(C)C(=O)CN(C)C(=O)CN(C)C(=O)CN(C)C(=O)CN(C)C(=O)CN(C)C(=O)CN(C)C(=O)CN(C)C(=O)CN(C)C(=O)CC[C@H](NC(=O)CC[C@H](NC(=O)CC[C@H](NC(=O)CCCCCCCCCCCCCCCCCCC(=O)O)C(=O)O)C(=O)O)C(=O)O)CC1)C(=O)N[C@@H](CCCNC(=N)N)C(=O)N(C)[C@@H](C)C(=O)N[C@@H](CCCNC(=N)N)C(=O)NCC(N)=O` [Compound 63, C20DA-gGlu3-Sar12-AEPipAc-Tyr-Phe-NMeLeu-Nle-Arg-NMeAla-Arg-Gly-NH2] are 4.5 nM and 14.9 nM.
As for `CCCC[C@H](NC(=O)[C@H](CC(C)C)N(C)C(=O)[C@H](Cc1ccccc1)NC(=O)[C@H](Cc1ccc(O)cc1)NC(=O)CN1CCN(CCNC(=O)CN(C)C(=O)CN(C)C(=O)CN(C)C(=O)CN(C)C(=O)CN(C)C(=O)CN(C)C(=O)CN(C)C(=O)CN(C)C(=O)CN(C)C(=O)CN(C)C(=O)CN(C)C(=O)CN(C)C(=O)CN(C)C(=O)CN(C)C(=O)CN(C)C(=O)CC[C@H](NC(=O)CC[C@H](NC(=O)CC[C@H](NC(=O)CC[C@H](NC(=O)CCCCCCCCCCCCCCCCCCC(=O)O)C(=O)O)C(=O)O)C(=O)O)C(=O)O)CC1)C(=O)N[C@@H](CCCCN)C(=O)N1CCC[C@H]1C(=O)N[C@@H](CCCNC(=N)N)C(=O)NCC(N)=O` [Compound 17, C20DA-gGlu4-Sar15-AEPipAc-Tyr-Phe-NMeLeu-Nle-Lys-Pro-Arg-Gly-NH2] (HELM PEPTIDE1{[O=C(O)CCCCCCCCCCCCCCCCCCC(=O)[*:2]].[gGlu].[gGlu].[gGlu].[gGlu].[Sar].[Sar].[Sar].[Sar].[Sar].[Sar].[Sar].[Sar].[Sar].[Sar].[Sar].[Sar].[Sar].[Sar].[Sar].[O=C(CN1CCN(CCN[*:1])CC1)[*:2]].Y.F.[meL].[Nle].K.P.R.G.[am]}$$$$V2.0), the figures for the 50% effective concentration (EC50) in test [1] and in test [2] were 4.7 nM and 24.8 nM, respectively.
Consider `CCCC[C@H](NC(=O)[C@H](CC(C)C)N(C)C(=O)[C@H](Cc1ccccc1)NC(=O)[C@H](Cc1ccc(O)cc1)NC(=O)CN1CCN(CCNC(=O)CN(C)C(=O)CN(C)C(=O)CN(C)C(=O)CN(C)C(=O)CN(C)C(=O)CN(C)C(=O)CN(C)C(=O)CN(C)C(=O)CN(C)C(=O)CN(C)C(=O)CN(C)C(=O)CN(C)C(=O)CC[C@H](NC(=O)CC[C@H](NC(=O)CC[C@H](NC(=O)CC[C@H](NC(=O)CCCCCCCCCCCCCCCCCCC(=O)O)C(=O)O)C(=O)O)C(=O)O)C(=O)O)CC1)C(=O)N[C@@H](CCCN)C(=O)N1CCC[C@H]1C(=O)N[C@@H](CCCNC(=N)N)C(=O)NCC(N)=O` [Compound 40, C20DA-gGlu4-Sar12-AEPipAc-Tyr-Phe-NMeLeu-Nle-Orn-Pro-Arg-Gly-NH2], for which the concentration giving a half-maximal response (EC50) is 4.5 nM in test [1] and 11.3 nM in test [2].
The corresponding values for `CCCC[C@H](NC(=O)[C@H](CC(C)C)N(C)C(=O)[C@H](Cc1ccccc1)NC(=O)[C@H](Cc1ccc(O)cc1)NC(=O)CN1CCN(CCNC(=O)CN(C)C(=O)CN(C)C(=O)CN(C)C(=O)CN(C)C(=O)CN(C)C(=O)CN(C)C(=O)CN(C)C(=O)CN(C)C(=O)CN(C)C(=O)CC[C@H](NC(=O)CC[C@H](NC(=O)CCCCCCCCCCCCCCCCC(=O)O)C(=O)O)C(=O)O)CC1)C(=O)N[C@@H](CCCNC(=N)N)C(=O)N(C)[C@@H](C)C(=O)N[C@@H](CCCNC(=N)N)C(=O)NCC(N)=O` [Compound 66, C18DA-gGlu2-Sar9-AEPipAc-Tyr-Phe-NMeLeu-Nle-Arg-NMeAla-Arg-Gly-NH2] (HELM PEPTIDE1{[O=C(O)CCCCCCCCCCCCCCCCC(=O)[*:2]].[gGlu].[gGlu].[Sar].[Sar].[Sar].[Sar].[Sar].[Sar].[Sar].[Sar].[Sar].[O=C(CN1CCN(CCN[*:1])CC1)[*:2]].Y.F.[meL].[Nle].R.[meA].R.G.[am]}$$$$V2.0) are 1.6 nM and 18.9 nM.
The matching figures for `CCCC[C@H](NC(=O)[C@H](CC(C)C)N(C)C(=O)[C@H](Cc1ccccc1)NC(=O)[C@H](Cc1ccc(O)cc1)NC(=O)CN1CCN(CCNC(=O)CN(C)C(=O)CN(C)C(=O)CN(C)C(=O)CN(C)C(=O)CN(C)C(=O)CN(C)C(=O)CN(C)C(=O)CN(C)C(=O)CN(C)C(=O)CN(C)C(=O)CN(C)C(=O)CN(C)C(=O)CC[C@H](NC(=O)CC[C@H](NC(=O)CC[C@H](NC(=O)CC[C@H](NC(=O)CCCCCCCCCCCCCCCCC(=O)O)C(=O)O)C(=O)O)C(=O)O)C(=O)O)CC1)C(=O)N[C@@H](CCCN)C(=O)N1CCC[C@H]1C(=O)N[C@@H](CCCNC(=N)N)C(=O)NCC(N)=O` [Compound 5, C18DA-gGlu4-Sar12-AEPipAc-Tyr-Phe-NMeLeu-Nle-Orn-Pro-Arg-Gly-NH2]: 1.8 nM and 10 nM.
The matching figures for `CCCC[C@H](NC(=O)[C@H](CC(C)C)N(C)C(=O)[C@H](Cc1ccccc1)NC(=O)[C@H](Cc1ccc(O)cc1)NC(=O)CN1CCN(C(=O)CN(C)C(=O)CN(C)C(=O)CN(C)C(=O)CN(C)C(=O)CN(C)C(=O)CN(C)C(=O)CN(C)C(=O)CN(C)C(=O)CN(C)C(=O)CN(C)C(=O)CN(C)C(=O)CN(C)C(=O)CN(C)C(=O)CN(C)C(=O)CN(C)C(=O)CC[C@H](NC(=O)CC[C@H](NC(=O)CC[C@H](NC(=O)CCCCCCCCCCCCCCCCCCC(=O)O)C(=O)O)C(=O)O)C(=O)O)CC1)C(=O)N[C@@H](CCCN)C(=O)N1CCC[C@H]1C(=O)N[C@@H](CCCNC(=N)N)C(=O)NCC(N)=O` [Compound 80, C20DA-gGlu3-Sar15-PipAc-Tyr-Phe-NMeLeu-Nle-Orn-Pro-Arg-Gly-NH2] (HELM PEPTIDE1{[O=C(O)CCCCCCCCCCCCCCCCCCC(=O)[*:2]].[gGlu].[gGlu].[gGlu].[Sar].[Sar].[Sar].[Sar].[Sar].[Sar].[Sar].[Sar].[Sar].[Sar].[Sar].[Sar].[Sar].[Sar].[Sar].[O=C(CN1CCN([*:1])CC1)[*:2]].Y.F.[meL].[Nle].[Orn].P.R.G.[am]}$$$$V2.0): 1.9 nM and 7.1 nM.
`CCCC[C@H](NC(=O)[C@H](CC(C)C)N(C)C(=O)[C@H](Cc1ccccc1)NC(=O)[C@H](Cc1ccc(O)cc1)NC(=O)CN1CCN(C(=O)CN(C)C(=O)CN(C)C(=O)CN(C)C(=O)CN(C)C(=O)CN(C)C(=O)CN(C)C(=O)CN(C)C(=O)CN(C)C(=O)CN(C)C(=O)CN(C)C(=O)CN(C)C(=O)CN(C)C(=O)CC[C@H](NC(=O)CC[C@H](NC(=O)CC[C@H](NC(=O)CCCCCCCCCCCCCCCCC(=O)O)C(=O)O)C(=O)O)C(=O)O)CC1)C(=O)N[C@@H](CCCNC(=N)N)C(=O)N1CCC[C@H]1C(=O)N[C@@H](CCCNC(=N)N)C(=O)NCC(N)=O` [Compound 77, C18DA-gGlu3-Sar12-PipAc-Tyr-Phe-NMeLeu-Nle-Arg-Pro-Arg-Gly-NH2]: the concentration giving a half-maximal response (EC50) came out at 0.8 nM in test [1] and 5.2 nM in test [2].

Values taken from patent US20240279278A1, “NMU RECEPTOR 2 AGONISTS” (Boehringer Ingelheim International GmbH, priority 2023, published 2024).
